Assay results reported in patent US7078550B2, “Silanyl phenols and naphthols” (Ciba Specialty Chemicals Corporation, priority 2001, dated 2006).
Values after ≈ are worked out from the molar mass of the structure shown.

Legend:
Experiment in all cases: Minimum Inhibitory Concentration (MIC) in the agar incorporation test
Assay type in all cases: cell-based
[1] = test system: Pseudomonas aeruginosa CIP A-22; settings: CIPA22, 24 hours at 37° C.
Description: (§1) Determination of the Minimum Inhibitory Concentration (MIC) in the Agar Incorporation Test (MIC Test)
(§2) 0.3 ml of each dilution stage is mixed with 15 ml of still-liquid nutrient medium. After the nutrient medium has solidified, 10 μl of each of the following organism dilutions of the test strains in 0.85% NaCl solution are spotted onto the agar medium:
(§3) The plates are incubated for 24 hours at 37° C. (A. niger 3 days at 28° C.) and then the highest dilution (lowest concentration) of the test substance at which growth is just no longer discernible (corresponds to the MIC) is determined.

[2] = test system: Staphylococcus aureus ATCC 9144; settings: ATCC9144, 24 hours at 37° C.
Description: as §1, §2, §3

[3] = test system: Escherichia coli NCTC 8196; settings: NCTC8196, 24 hours at 37° C.
Description: as §1, §2, §3

[4] = test system: Aspergillus niger ATCC 6275; settings: ATCC6275, 72 h, Sabouraud 4% glucose agar, 3 days at 28° C.
Description: as §1, §2, §3

[5] = test system: Candida albicans ATCC 10231
Description: as §1, §2, §3

[6] = test system: Staphylococcus hominis DSM 20328; settings: DSM20328
Description: (§4) Determination of the Minimum Inhibitory Concentration (MIC) in the Agar Incorporation Test (MIC Test) [table] Test Principle: 0.3 ml of each dilution stage is mixed with 15 ml of still-liquid nutrient medium. After the nutrient medium has solidified, 10 μl of each of the following organism dilutions of the test strains in 0.85% NaCl solution are spotted onto the agar medium: The plates are incubated for 24 hours at 37° C. (A. niger 3 days at 28° C.) and then the highest dilution (lowest concentration) of the test substance at which growth is just no longer discernible (corresponds to the MIC) is determined.

[7] = test system: Enterococcus hirae ATCC 10541; settings: ATCC10541
Description: as §4

[8] = test system: Corynebacterium xerosis ATCC 373; settings: ATCC373, 24 h
Description: as §4

[9] = test system: Escherichia coli ATCC 10536; settings: ATCC10536
Description: as §4

[10] = ATCC10231, Candida albicans ATCC 10231, 24 hours at 37° C.
[11] = 24 h, Candida albicans ATCC 1023 (as printed in Table 3e)

| Structure (SMILES) | MIC [1] | MIC [2] | MIC [3] | MIC [4] | MIC [5, 10] | MIC [6] | MIC [7] | MIC [8] | MIC [5, 11] | MIC [9] |
| --- | --- | --- | --- | --- | --- | --- | --- | --- | --- | --- |
| CC(Cc1cc(Oc2ccccc2)ccc1O)C[Si](C)(O[Si](C)(C)C)O[Si](C)(C)C (stereo not drawn) [(101)] | > 1000 µg/mL | 1000 µg/mL (≈ 2160 µM) | > 1000 µg/mL | > 1000 µg/mL | > 1000 µg/mL | – | – | – | – | – |
| COc1cc(CCC[Si](C)(O[Si](C)(C)C)O[Si](C)(C)C)ccc1O [(102)] | > 1000 µg/mL | > 1000 µg/mL | > 1000 µg/mL | > 1000 µg/mL | > 1000 µg/mL | – | – | – | – | – |
| CC(Cc1cc(-c2ccccc2)ccc1O)C[Si](C)(O[Si](C)(C)C)O[Si](C)(C)C (stereo not drawn) [(103)] | > 560 µg/mL | > 560 µg/mL | > 560 µg/mL | > 560 µg/mL | > 560 µg/mL | > 560 µg/mL | > 560 µg/mL | 17.5 µg/mL (≈ 39.2 µM) | – | – |
| C[Si](C)(C)O[Si](C)(CCCc1ccccc1O)O[Si](C)(C)C [(104)] | > 1000 µg/mL | 8 µg/mL (≈ 22.4 µM) | > 1000 µg/mL | > 1000 µg/mL | > 1000 µg/mL | – | – | – | – | – |
| C[Si](C)(C)O[Si](C)(C)O[Si](C)(C)CCCc1ccccc1O [(105)] | > 1000 µg/mL | 15.6 µg/mL (≈ 43.7 µM) | > 1000 µg/mL | > 1000 µg/mL | > 1000 µg/mL | > 1000 µg/mL | 15.6 µg/mL (≈ 43.7 µM) | 3.9 µg/mL (≈ 10.9 µM) | – | – |
| C[Si](C)(C)O[Si](C)(C)CCCc1ccccc1O [(106)] | > 1000 µg/mL | 7.8 µg/mL (≈ 27.6 µM) | > 1000 µg/mL | 31.2 µg/mL (≈ 110 µM) | > 1000 µg/mL | 31.2 µg/mL (≈ 110 µM) | 15.6 µg/mL (≈ 55.2 µM) | 7.8 µg/mL (≈ 27.6 µM) | – | – |
| C[Si](C)(CCCc1ccccc1O)c1ccccc1 [(107)] | > 1000 µg/mL | 1.9 µg/mL (≈ 7.03 µM) | > 1000 µg/mL | 15.6 µg/mL (≈ 57.7 µM) | 125 µg/mL (≈ 462 µM) | 7.8 µg/mL (≈ 28.8 µM) | 3.9 µg/mL (≈ 14.4 µM) | 1.9 µg/mL (≈ 7.03 µM) | – | – |
| CC(Cc1cc(C(C)(C)C)ccc1O)C[Si](C)(O[Si](C)(C)C)O[Si](C)(C)C (stereo not drawn) [(108)] | > 1000 µg/mL | – | > 1000 µg/mL | > 1000 µg/mL | > 1000 µg/mL | – | – | 8 µg/mL (≈ 18.7 µM) | – | – |
| COc1ccc(O)c(CCC[Si](C)(O[Si](C)(C)C)O[Si](C)(C)C)c1 [(110)] | > 1000 µg/mL | 250 µg/mL (≈ 646 µM) | > 1000 µg/mL | > 1000 µg/mL | > 1000 µg/mL | – | – | 4 µg/mL (≈ 10.3 µM) | – | – |
| COc1ccc(O)c(CCC[Si](C)(C)c2ccccc2)c1 [(111)] | > 1000 µg/mL | 125 µg/mL (≈ 416 µM) | > 1000 µg/mL | > 1000 µg/mL | > 1000 µg/mL | – | – | 8 µg/mL (≈ 26.6 µM) | – | – |
| C[Si](C)(C)O[Si](C)(C)O[Si](C)(C)CCCc1cc(Cl)ccc1O [(112)] | > 1000 µg/mL | 7 µg/mL (≈ 17.9 µM) | > 1000 µg/mL | > 1000 µg/mL | > 1000 µg/mL | – | – | 2 µg/mL (≈ 5.11 µM) | – | – |
| Cc1ccc(O)c(CCC[Si](C)(C)O[Si](C)(C)C)c1 [(114)] | > 1000 µg/mL | 8 µg/mL (≈ 27 µM) | > 1000 µg/mL | > 1000 µg/mL | > 1000 µg/mL | – | – | 8 µg/mL (≈ 27 µM) | – | – |
| C[Si](C)(C)O[Si](C)(C)CCCc1cc(Cl)ccc1O [(115)] | > 1000 µg/mL | 15 µg/mL (≈ 47.3 µM) | 250 µg/mL (≈ 789 µM) | 500 µg/mL (≈ 1580 µM) | 500 µg/mL (≈ 1580 µM) | – | – | 8 µg/mL (≈ 25.2 µM) | – | – |
| C[Si](C)(C)O[Si](C)(CCCc1ccc2ccccc2c1O)O[Si](C)(C)C [(116)] | – | > 1000 µg/mL | – | > 1000 µg/mL | – | > 1000 µg/mL | – | 500 µg/mL (≈ 1230 µM) | > 1000 µg/mL | > 1000 µg/mL |
| CC(Cc1ccc2ccccc2c1O)C[Si](C)(O[Si](C)(C)C)O[Si](C)(C)C (stereo not drawn) [(117)] | – | > 1000 µg/mL | – | > 1000 µg/mL | – | > 1000 µg/mL | – | 1000 µg/mL (≈ 2380 µM) | > 1000 µg/mL | > 1000 µg/mL |
| CC[Si](CC)(CC)CC(C)Cc1cc(Oc2ccccc2)ccc1O (stereo not drawn) [(118)] | > 1000 µg/mL | 4 µg/mL (≈ 11.2 µM) | > 1000 µg/mL | > 1000 µg/mL | > 1000 µg/mL | – | – | – | – | – |
| C[Si](C)(CCCc1cc(Cl)ccc1O)c1ccccc1 [(119)] | > 1000 µg/mL | 4 µg/mL (≈ 13.1 µM) | > 1000 µg/mL | 62 µg/mL (≈ 203 µM) | 62 µg/mL (≈ 203 µM) | – | – | 2 µg/mL (≈ 6.56 µM) | – | – |
| CC(Cc1cc(Oc2ccccc2)ccc1O)C[Si](C)(C)c1ccccc1 (stereo not drawn) [(120)] | > 1000 µg/mL | 8 µg/mL (≈ 21.2 µM) | > 1000 µg/mL | > 1000 µg/mL | > 1000 µg/mL | – | – | 4 µg/mL (≈ 10.6 µM) | – | – |
| CC(Cc1ccc2ccccc2c1O)C[Si](C)(C)c1ccccc1 (stereo not drawn) [(121)] | – | > 1000 µg/mL | – | > 1000 µg/mL | – | > 1000 µg/mL | – | 250 µg/mL (≈ 747 µM) | > 1000 µg/mL | > 1000 µg/mL |
